Reference: ChEMBL document CHEMBL1201862, “PubChem BioAssay data set” (2004)
Activity calls are given as the source filed them.

Key:
[1] = target: Luciferin 4-monooxygenase (Photinus pyralis, UniProt P08659); experiment: inhibition of purified Photinus pyralis luciferase – biochemical, luminescence, dose response (AID 1891)
[2] = Luminescence Cell-Based Dose Confirmation HTS to Identify Inhibitors of Platelet Dense Granule Release. [Related pubchem assays: 1663 (Primary HTS), 1678 (Summary of Project)]; assay type: functional
[3] = viability of PTEN-deleted HCT116 cells – cell-based, HCT116 PTEN knockout, dose response (AID 1047); assay type: functional;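 further: HCT116 colon tumor cells with PTEN knocked out; cells exposed to compound for 60 hours before readout; potency for loss of cell viability measured by luminescence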
[4] = viability of HCT116 lacking mutant beta-catenin – cell-based, human colon tumor, dose response (AID 1045); assay type: functional;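 further: HCT116 colon tumor cells with beta catenin knocked out; cells exposed to compound for 60 hours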
[5] = Luminescence Cell-Based Dose Confirmation HTS to Identify Activators of 5'UTR Stem-Loop Driven Alpha-Synuclein mRNA Translation in H4 Neuroglioblastoma Cells. [Related pubchem assays: 1829 (Project Summary), 1814 (Primary HTS)]; assay type: functional
[6] = Luminescence Cell-Based Dose Response HTS to Identify Activators of Luciferase Translation or Activity in H4 […] Cells. [Related pubchem assays: 1829 (Project Summary), 1814 (Primary HTS)]; assay type: functional
H4 = experiment: Luminescence Cell-Based Dose Response HTS to Identify Activators of 5'UTR Stem-Loop Driven Prion Protein mRNA Translation in H4 Neuroglioblastoma Cells. [Related pubchem assays: 1829 (Project Summary), 1814 (Primary HTS)]; assay type: functional; settings: Homo sapiens
[7] = NIH3T3 cell viability loss – ATP luminescence, mouse fibroblasts, counter-screen, dose response (AID 2010); assay type: functional, cell-based;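 further: cells exposed to compound for about 90 hours before reading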
[8] = Trypanosoma cruzi growth suppression in host cells – NIH3T3 host cells, beta-gal luminescence, confirmation (AID 2044); assay type: functional, cell-based;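 further: intracellular parasites grown in NIH/3T3 mouse fibroblasts as host cells; luminescent beta-galactosidase reporter signal from transgenic T. cruzi replicating inside host cells; inhibitors lower the luminescence signal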
Protein skinhead-1 = target: T1, Protein skinhead-1 (Caenorhabditis elegans, UniProt P34707); assay type: functional
T1 sequence (P34707 whole entry): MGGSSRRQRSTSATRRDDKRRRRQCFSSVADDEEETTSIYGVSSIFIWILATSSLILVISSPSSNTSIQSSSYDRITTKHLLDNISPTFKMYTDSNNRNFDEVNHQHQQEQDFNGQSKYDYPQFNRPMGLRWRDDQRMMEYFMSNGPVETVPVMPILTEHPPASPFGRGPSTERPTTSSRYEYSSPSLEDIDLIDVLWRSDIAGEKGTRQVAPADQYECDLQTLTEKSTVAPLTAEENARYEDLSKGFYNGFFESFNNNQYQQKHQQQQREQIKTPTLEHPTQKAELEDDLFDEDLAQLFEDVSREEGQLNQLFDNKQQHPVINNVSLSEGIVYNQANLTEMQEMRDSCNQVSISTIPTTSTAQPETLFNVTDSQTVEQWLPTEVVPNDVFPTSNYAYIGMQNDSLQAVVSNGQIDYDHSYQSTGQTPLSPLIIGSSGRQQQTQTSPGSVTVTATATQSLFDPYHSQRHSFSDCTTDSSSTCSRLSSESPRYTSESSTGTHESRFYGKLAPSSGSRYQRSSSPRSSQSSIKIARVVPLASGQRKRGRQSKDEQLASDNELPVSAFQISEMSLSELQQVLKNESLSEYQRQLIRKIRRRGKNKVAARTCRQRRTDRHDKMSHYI

Cytochrome P450 2C19 = Cytochrome P450 2C19 (Homo sapiens, UniProt P33261); experiment: Cytochrome panel assay with activity outcomes. Panel member name: p450-cyp2c19 Compounds with AC50 equal or less than 10 uM are considered active; assay type: functional; settings: read-out: AC50
Cytochrome P450 2C19, sequence (P33261 whole entry, the tested form may be a part): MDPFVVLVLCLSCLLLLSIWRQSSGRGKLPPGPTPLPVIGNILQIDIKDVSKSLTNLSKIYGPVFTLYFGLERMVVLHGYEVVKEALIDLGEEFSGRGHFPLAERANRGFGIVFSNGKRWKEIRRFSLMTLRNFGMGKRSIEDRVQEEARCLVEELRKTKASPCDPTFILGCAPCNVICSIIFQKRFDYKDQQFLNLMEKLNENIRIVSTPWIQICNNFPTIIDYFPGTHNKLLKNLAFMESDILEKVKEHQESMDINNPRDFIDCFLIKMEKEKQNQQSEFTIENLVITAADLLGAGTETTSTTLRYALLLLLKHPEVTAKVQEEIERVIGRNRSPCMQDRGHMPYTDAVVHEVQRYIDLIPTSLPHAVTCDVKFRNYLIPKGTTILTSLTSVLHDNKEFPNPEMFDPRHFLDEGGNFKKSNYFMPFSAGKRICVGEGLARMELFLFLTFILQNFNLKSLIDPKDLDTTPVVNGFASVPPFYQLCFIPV

[9] = target: T2, Polyadenylate-binding protein 1 (Homo sapiens, UniProt P11940); experiment: MLLE domain peptide-binding blockers, IC50 – biochemical, fluorescence polarization, FITC-PAM2 peptide, dose response (AID 602259); assay type: functional; settings: read-out: IC50_Mean
T2 sequence (P11940 whole entry, the tested form may be a part): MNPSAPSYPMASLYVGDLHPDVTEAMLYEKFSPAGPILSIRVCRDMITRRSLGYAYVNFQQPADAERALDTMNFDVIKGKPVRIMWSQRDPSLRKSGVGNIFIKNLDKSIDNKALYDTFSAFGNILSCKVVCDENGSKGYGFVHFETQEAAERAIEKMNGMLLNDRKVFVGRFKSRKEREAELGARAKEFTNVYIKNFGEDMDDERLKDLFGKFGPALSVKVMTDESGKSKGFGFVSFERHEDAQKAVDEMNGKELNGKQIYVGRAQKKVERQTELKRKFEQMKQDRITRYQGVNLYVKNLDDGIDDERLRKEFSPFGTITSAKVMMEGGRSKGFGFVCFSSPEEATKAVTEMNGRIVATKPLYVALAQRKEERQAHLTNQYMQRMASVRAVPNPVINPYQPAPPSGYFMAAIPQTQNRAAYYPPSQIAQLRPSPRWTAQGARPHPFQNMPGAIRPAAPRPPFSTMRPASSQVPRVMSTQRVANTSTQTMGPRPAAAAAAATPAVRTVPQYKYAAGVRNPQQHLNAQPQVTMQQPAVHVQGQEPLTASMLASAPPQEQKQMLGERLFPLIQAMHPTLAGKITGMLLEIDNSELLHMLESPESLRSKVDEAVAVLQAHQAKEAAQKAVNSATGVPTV

[10] = target: T2, Polyadenylate-binding protein 1; experiment: MLLE binding blockers, Cy5 peptide tracer – biochemical, fluorescence polarization, Cy5-PAM2 peptide, secondary, miRNA deadenylation inhibitor project, dose response (AID 602260); assay type: functional; settings: read-out: IC50_Mean

Luciferin 4-monooxygenase, sequence (P08659 whole entry): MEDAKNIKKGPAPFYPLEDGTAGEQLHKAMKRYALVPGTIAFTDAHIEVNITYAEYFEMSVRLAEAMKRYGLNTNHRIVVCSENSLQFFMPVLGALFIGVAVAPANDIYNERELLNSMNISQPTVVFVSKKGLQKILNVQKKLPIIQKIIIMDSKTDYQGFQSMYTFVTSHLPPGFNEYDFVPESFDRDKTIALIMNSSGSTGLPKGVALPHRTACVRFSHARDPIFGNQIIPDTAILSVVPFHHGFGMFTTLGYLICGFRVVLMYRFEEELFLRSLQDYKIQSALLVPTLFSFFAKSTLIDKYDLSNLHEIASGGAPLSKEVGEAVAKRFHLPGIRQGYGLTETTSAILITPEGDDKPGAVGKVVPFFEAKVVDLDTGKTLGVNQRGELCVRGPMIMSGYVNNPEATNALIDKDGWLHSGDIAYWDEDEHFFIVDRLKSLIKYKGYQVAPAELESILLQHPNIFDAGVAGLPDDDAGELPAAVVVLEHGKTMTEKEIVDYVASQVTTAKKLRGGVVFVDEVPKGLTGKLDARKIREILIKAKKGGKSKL

Row | Structure (SMILES) | EC50 [1] | EC50 [2] | IC50 (Protein skinhead-1) | other results
1 | COc1cccc(C(=O)N/N=C/c2c[nH]nc2-c2ccc(OC)cc2OC)c1 | > 112 µM (not active) | > 112 µM (not active) | – | –
2 | CCc1ccc2nc(O)c(CN(Cc3nnnn3C3CCCC3)C3CCCCC3)cc2c1 | – | – | – | EC50 [3]: 18.8 µM (active); EC50 [4]: 19.7 µM (active); EC50 [5]: > 120 µM (not active); EC50 [6]: > 120 µM (not active); EC50 (H4): > 120 µM (not active)
3 | O=[N+]([O-])c1cc(CN2CCCC2)ccc1Sc1ccc(Cl)cc1 | – | – | 17.9 µM (active) | EC50 [7]: 9.06 µM (active); EC50 [8]: 0.232 µM (active)
4 | C(=C1c2ccccc2-c2ccccc21)c1ccccn1 | – | – | 59.4 µM (inactive) | –
5 | O=C(Nc1ccc(Cl)cc1)c1cnc(-c2ccccc2)nc1-c1ccccc1 | – | – | – | EC50 [3]: 7.19 µM (active); AC50 (Cytochrome P450 2C19): 1 µM (inconclusive); EC50 [4]: 6.45 µM (active)
6 | Clc1ccc2oc(-c3ccccn3)nc2c1 | – | – | 35.9 µM (active) | –
7 | CC(=O)NC(CCS(C)(=O)=O)C(=O)Nc1cc(C)on1 (centres undefined) | > 112 µM (not active) | > 112 µM (not active) | – | –
8 | O=C(Nc1ccccc1F)C1CCCC1 | – | – | > 100 µM (inactive) | –
9 | Cc1ccc(-c2nc(=S)c3c(n2CCN2CCOCC2)CC(C)(C)OC3)cc1 | – | – | > 100 µM (inactive) | –
10 | CCOC(=O)C1=C(C)N(c2ccc(C)cc2)C(=O)/C1=C\c1ccc(O)c(OC)c1 | > 112 µM (not active) | > 112 µM (not active) | – | –
11 | O=C(Cc1cccc2ccccc12)NC(NC(=S)Nc1ccccc1Cl)C(Cl)(Cl)Cl (centres undefined) | – | – | – | EC50 [3]: 15.2 µM (active); IC50 [9]: > 66 µM (inactive); IC50 [10]: > 66 µM (inactive); EC50 [4]: 16.7 µM (active)
12 | O=C(CN1CCN(S(=O)(=O)c2ccc(Br)cc2)CC1)Nc1ccc2c(c1)OCO2 | – | – | > 100 µM (inactive) | –
13 | O=C1[C@@H]2Cc3c([nH]c4ccccc34)[C@@H](c3ccccc3)N2C(=O)[C@@H]2Cc3c([nH]c4ccccc34)[C@@H](c3ccccc3)N12 | – | – | – | EC50 [3]: 9.58 µM (active); EC50 [4]: 9.96 µM (active)
14 | CCCSc1cc(NCCOC(C)=O)c([N+](=O)[O-])c2nonc12 | > 112 µM (not active) | > 112 µM (not active) | – | –
15 | FC(F)(F)c1cc(-c2ccccc2)nc(NC2CCCC2)n1 | – | – | > 100 µM (inactive) | –
16 | CSc1cccc(NC(=O)c2cc(S(=O)(=O)N3CCCC3)cn2C)c1 | > 112 µM (not active) | > 112 µM (not active) | – | –
17 | CCOC(=O)c1ccc(NC(=O)c2cccc(S(=O)(=O)N3CCOCC3)c2)cc1 | – | – | – | EC50 [3]: 30.4 µM (active); EC50 [4]: 22 µM (active)
18 | c1ccc(-c2nc3c4ccccc4ccn3c2CN2CCCCC2)cc1 | 14.8 µM (active) | > 112 µM (not active) | – | –
19 | O=C(NCC1CCCO1)c1ccc(NC(=O)c2cccc(Cl)c2)cc1 (centres undefined) | > 112 µM (not active) | > 112 µM (not active) | – | –
